Source: ChEMBL document CHEMBL1201862, “PubChem BioAssay data set” (2004)
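Growth conditions: 96-well plates. Treatment: test compound, 48 hours, 5 concentrations. Analysis: linear interpolation between bracketing concentrations; unreached endpoints set to highest concentration. GI50 is the concentration that inhibits growth by half.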 The source made the active and inactive calls. No stated cut-off is given here; in the data, active = GI50 up to about 1.1 µM and inactive = higher.

Legend:
Experiment in all cases: DTP human tumour cell line panel, 48 h
[1] = test system: NCI-H226
[2] = test system: OVCAR-8
[3] = test system: DU-145
[4] = test system: CCRF-CEM
[5] = test system: MCF7
[6] = test system: UACC-62
[7] = test system: SR
[8] = test system: SF-539
[9] = test system: SK-MEL-2
[10] = test system: SNB-19
[11] = test system: NCI-H522
[12] = test system: MDA-N
[13] = test system: NCI-H460
[14] = test system: RPMI-8226
[15] = test system: A498
[16] = test system: RXF 393
[17] = test system: MOLT-4
[18] = test system: SNB-75
[19] = test system: UO-31
[20] = test system: OVCAR-5
[21] = test system: PC-3
[22] = test system: MDA-MB-435
[23] = test system: SW-620
[24] = test system: NCI-H23
[25] = test system: HCC 2998
[26] = test system: OVCAR-4
[27] = test system: SF-268
[28] = test system: A549
[29] = test system: SF-295
[30] = test system: SK-OV-3
[31] = test system: OVCAR-3
[32] = test system: Malme-3M
[33] = test system: TK-10
[34] = test system: CAKI-1
[35] = test system: HCT-116
[36] = test system: K562
[37] = test system: ACHN
[38] = test system: 786-0
[39] = test system: SK-MEL-28
[40] = test system: LOX IMVI
[41] = test system: NCI/ADR-RES
[42] = test system: HOP-62
[43] = test system: HT-29
[44] = test system: HL-60
[45] = test system: EKVX
[46] = test system: COLO 205
[47] = test system: KM12
[48] = test system: M14
[49] = test system: SN12C
[50] = test system: Hs-578T
[51] = test system: IGROV-1
[52] = test system: U-251
[53] = test system: HCT-15
[54] = test system: UACC-257
[55] = test system: SK-MEL-5
[56] = test system: MDA-MB-231
[57] = test system: HOP-92
[58] = test system: T47D

Question: For `CSc1nc(C)cc(N(C)c2ccccc2)n1`, which GI50 [1] is on record?
Answer: The GI50 was 34.5 µM (inactive).

Question: What about the GI50 [2] of the same compound?
Answer: Its GI50 is 34.8 µM (inactive).

Question: And the GI50 [3]?
Answer: Its GI50 is 58.6 µM (inactive).

Question: What about the GI50 [4] of the same compound?
Answer: Its GI50 is 38 µM (inactive).

Question: What about the GI50 [5] of the same compound?
Answer: The GI50 was 24.9 µM (inactive).

Question: What about the GI50 [6] of the same compound?
Answer: Its GI50 is 35.3 µM (inactive).

Question: What about the GI50 [7] of the same compound?
Answer: The GI50 was 10.7 µM (inactive).

Question: What about the GI50 [8] of the same compound?
Answer: Its GI50 is 28 µM (inactive).

Question: And the GI50 [9]?
Answer: Its GI50 is 40 µM (inactive).

Question: What about the GI50 [10] of the same compound?
Answer: Its GI50 is 85.5 µM (inactive).

Question: And the GI50 [11]?
Answer: The GI50 was 65.6 µM (inactive).

Question: And the GI50 [12]?
Answer: The GI50 was 24.1 µM (inactive).

Question: What about the GI50 [13] of the same compound?
Answer: The GI50 was 40.7 µM (inactive).

Question: And the GI50 [14]?
Answer: The GI50 was > 100 µM (inactive).

Question: And the GI50 [15]?
Answer: The GI50 was 50.1 µM (inactive).

Question: What about the GI50 [16] of the same compound?
Answer: The GI50 was 31 µM (inactive).

Question: What about the GI50 [17] of the same compound?
Answer: Its GI50 is 29.7 µM (inactive).

Question: What about the GI50 [18] of the same compound?
Answer: Its GI50 is 27.1 µM (inactive).

Question: And the GI50 [19]?
Answer: The GI50 was 5.33 µM (inactive).

Question: And the GI50 [20]?
Answer: Its GI50 is > 100 µM (inactive).

Question: And the GI50 [21]?
Answer: Its GI50 is 55.5 µM (inactive).

Question: What about the GI50 [22] of the same compound?
Answer: Its GI50 is 22.5 µM (inactive).

Question: What about the GI50 [23] of the same compound?
Answer: The GI50 was 54.5 µM (inactive).

Question: What about the GI50 [24] of the same compound?
Answer: The GI50 was 27.9 µM (inactive).

Question: What about the GI50 [25] of the same compound?
Answer: The GI50 was > 100 µM (inactive).

Question: What about the GI50 [26] of the same compound?
Answer: The GI50 was > 100 µM (inactive).

Question: What about the GI50 [27] of the same compound?
Answer: The GI50 was 43.8 µM (inactive).

Question: And the GI50 [28]?
Answer: Its GI50 is 29 µM (inactive).

Question: And the GI50 [29]?
Answer: Its GI50 is 34.7 µM (inactive).

Question: And the GI50 [30]?
Answer: Its GI50 is 37.6 µM (inactive).

Question: What about the GI50 [31] of the same compound?
Answer: The GI50 was 27.3 µM (inactive).

Question: What about the GI50 [32] of the same compound?
Answer: Its GI50 is 63.7 µM (inactive).

Question: And the GI50 [33]?
Answer: Its GI50 is 33.5 µM (inactive).

Question: And the GI50 [34]?
Answer: The GI50 was 33 µM (inactive).

Question: What about the GI50 [35] of the same compound?
Answer: The GI50 was 22.9 µM (inactive).

Question: And the GI50 [36]?
Answer: The GI50 was 44 µM (inactive).

Question: And the GI50 [37]?
Answer: Its GI50 is 58.6 µM (inactive).

Question: What about the GI50 [38] of the same compound?
Answer: Its GI50 is 38.5 µM (inactive).

Question: And the GI50 [39]?
Answer: Its GI50 is 46.8 µM (inactive).

Question: What about the GI50 [40] of the same compound?
Answer: Its GI50 is 21.1 µM (inactive).

Question: What about the GI50 [41] of the same compound?
Answer: The GI50 was 25.2 µM (inactive).

Question: And the GI50 [42]?
Answer: The GI50 was 45.2 µM (inactive).

Question: What about the GI50 [43] of the same compound?
Answer: Its GI50 is 15.1 µM (inactive).

Question: And the GI50 [44]?
Answer: The GI50 was 32.8 µM (inactive).

Question: And the GI50 [45]?
Answer: Its GI50 is 37.8 µM (inactive).

Question: What about the GI50 [46] of the same compound?
Answer: Its GI50 is 34.8 µM (inactive).

Question: What about the GI50 [47] of the same compound?
Answer: The GI50 was 1.73 µM (inactive).

Question: And the GI50 [48]?
Answer: The GI50 was 30.1 µM (inactive).

Question: What about the GI50 [49] of the same compound?
Answer: The GI50 was 41.8 µM (inactive).

Question: And the GI50 [50]?
Answer: Its GI50 is 32.4 µM (inactive).

Question: And the GI50 [51]?
Answer: Its GI50 is 36.9 µM (inactive).

Question: And the GI50 [52]?
Answer: The GI50 was 31.4 µM (inactive).

Question: What about the GI50 [53] of the same compound?
Answer: Its GI50 is 38.4 µM.

Question: What about the GI50 [54] of the same compound?
Answer: Its GI50 is 31.6 µM (inactive).

Question: And the GI50 [55]?
Answer: Its GI50 is 25.6 µM (inactive).

Question: What about the GI50 [56] of the same compound?
Answer: Its GI50 is 34.8 µM (inactive).

Question: What does the source list for `C[C@H](N[C@H]1CCC[C@]1(O)C#Cc1ccc2c(c1)OCO2)c1ccccc1`?
Answer: GI50 [1]: > 25 µM (inactive); GI50 [2]: > 25 µM (inactive); GI50 [3]: > 25 µM (inactive); GI50 [4]: > 25 µM (inactive); GI50 [5]: > 25 µM (inactive); GI50 [6]: > 25 µM (inactive); GI50 [7]: 20.7 µM (inactive); GI50 [9]: 8.61 µM (inactive); GI50 [10]: > 25 µM (inactive); GI50 [13]: 21.4 µM (inactive); GI50 [14]: 8.89 µM (inactive); GI50 [15]: > 25 µM (inactive); GI50 [16]: > 25 µM (inactive); GI50 [57]: 11.9 µM (inactive); GI50 [17]: 10.9 µM (inactive); GI50 [18]: 15.4 µM (inactive); GI50 [19]: > 25 µM (inactive); GI50 [20]: > 25 µM (inactive); GI50 [21]: 13.6 µM (inactive); GI50 [22]: > 25 µM (inactive); GI50 [58]: 21.8 µM (inactive); GI50 [24]: > 25 µM (inactive); GI50 [25]: 10.7 µM (inactive); GI50 [26]: 14 µM (inactive); GI50 [27]: > 25 µM (inactive); GI50 [28]: > 25 µM (inactive); GI50 [29]: > 25 µM (inactive); GI50 [30]: > 25 µM (inactive); GI50 [33]: > 25 µM (inactive); GI50 [34]: > 25 µM (inactive); GI50 [36]: 11.7 µM (inactive); GI50 [37]: > 25 µM (inactive); GI50 [39]: 15.5 µM (inactive); GI50 [40]: > 25 µM (inactive); GI50 [41]: > 25 µM (inactive); GI50 [42]: > 25 µM (inactive); GI50 [43]: > 25 µM (inactive); GI50 [44]: > 25 µM (inactive); GI50 [45]: > 25 µM (inactive); GI50 [46]: 9.25 µM (inactive); GI50 [47]: > 25 µM (inactive); GI50 [48]: 14.2 µM (inactive); GI50 [50]: > 25 µM (inactive); GI50 [51]: 14.3 µM (inactive); GI50 [52]: 19.7 µM (inactive); GI50 [53]: > 25 µM; GI50 [54]: > 25 µM (inactive); GI50 [55]: 22.6 µM (inactive); GI50 [56]: 22.1 µM (inactive)

Question: What does the source list for `O=c1c2ccccc2nc2n1CCc1c-2[nH]c2cc3c(cc12)OCO3`?
Answer: GI50 [2]: 5.74 µM (inactive); GI50 [5]: > 25 µM (inactive); GI50 [7]: > 25 µM (inactive); GI50 [8]: 5.77 µM (inactive); GI50 [10]: 5.11 µM (inactive); GI50 [11]: 5.4 µM (inactive); GI50 [12]: 17.6 µM (inactive); GI50 [14]: > 25 µM (inactive); GI50 [17]: > 25 µM (inactive); GI50 [18]: 6.61 µM (inactive); GI50 [19]: > 25 µM (inactive); GI50 [20]: > 25 µM (inactive); GI50 [21]: > 25 µM (inactive); GI50 [22]: 13.6 µM (inactive); GI50 [23]: > 25 µM (inactive); GI50 [58]: > 25 µM (inactive); GI50 [25]: > 25 µM (inactive); GI50 [27]: 5.41 µM (inactive); GI50 [29]: 5.55 µM (inactive); GI50 [30]: 6.95 µM (inactive); GI50 [33]: > 25 µM (inactive); GI50 [35]: 3.32 µM (inactive); GI50 [36]: > 25 µM (inactive); GI50 [37]: 3.98 µM (inactive); GI50 [39]: > 25 µM (inactive); GI50 [41]: > 25 µM (inactive); GI50 [42]: 9.42 µM (inactive); GI50 [44]: > 25 µM (inactive); GI50 [45]: > 25 µM (inactive); GI50 [46]: > 25 µM (inactive); GI50 [47]: 15.7 µM (inactive); GI50 [48]: > 25 µM (inactive); GI50 [49]: > 25 µM (inactive); GI50 [51]: > 25 µM (inactive); GI50 [52]: 7.28 µM (inactive); GI50 [53]: 8.65 µM; GI50 [54]: > 25 µM (inactive); GI50 [55]: 13.7 µM (inactive); GI50 [56]: 9.71 µM (inactive)
